The record followed here is patent US20240208992A1, “MACROCYCLES AS CFTR MODULATORS” (Idorsia Pharmaceuticals Ltd, priority 2021, published 2024).

The target of this assay is human F508del-CFTR (Homo sapiens, UniProt P13569, DEL508-508). In words: F508del-CFTR cell surface expression (corrector activity), DiscoveRx ß-galactosidase complementation chemiluminescence assay in recombinant U2OS cell line.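 For all read-outs here: U2OS cells co-expressing ProLink-tagged F508del-CFTR and a membrane-anchored enzyme acceptor, where more surface CFTR restores β-galactosidase activity measured by chemiluminescence.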 As to conditions: U2OS cell line, 16h compound incubation; for EC50: EC50, F508del-CFTR cell surface expression, geomean values; for Emax: in relation to the Emax of the corrector lumacaftor (=100%), arithmetic mean values.
human F508del-CFTR, sequence (P13569 with tags, fused parts or gaps DEL508-508): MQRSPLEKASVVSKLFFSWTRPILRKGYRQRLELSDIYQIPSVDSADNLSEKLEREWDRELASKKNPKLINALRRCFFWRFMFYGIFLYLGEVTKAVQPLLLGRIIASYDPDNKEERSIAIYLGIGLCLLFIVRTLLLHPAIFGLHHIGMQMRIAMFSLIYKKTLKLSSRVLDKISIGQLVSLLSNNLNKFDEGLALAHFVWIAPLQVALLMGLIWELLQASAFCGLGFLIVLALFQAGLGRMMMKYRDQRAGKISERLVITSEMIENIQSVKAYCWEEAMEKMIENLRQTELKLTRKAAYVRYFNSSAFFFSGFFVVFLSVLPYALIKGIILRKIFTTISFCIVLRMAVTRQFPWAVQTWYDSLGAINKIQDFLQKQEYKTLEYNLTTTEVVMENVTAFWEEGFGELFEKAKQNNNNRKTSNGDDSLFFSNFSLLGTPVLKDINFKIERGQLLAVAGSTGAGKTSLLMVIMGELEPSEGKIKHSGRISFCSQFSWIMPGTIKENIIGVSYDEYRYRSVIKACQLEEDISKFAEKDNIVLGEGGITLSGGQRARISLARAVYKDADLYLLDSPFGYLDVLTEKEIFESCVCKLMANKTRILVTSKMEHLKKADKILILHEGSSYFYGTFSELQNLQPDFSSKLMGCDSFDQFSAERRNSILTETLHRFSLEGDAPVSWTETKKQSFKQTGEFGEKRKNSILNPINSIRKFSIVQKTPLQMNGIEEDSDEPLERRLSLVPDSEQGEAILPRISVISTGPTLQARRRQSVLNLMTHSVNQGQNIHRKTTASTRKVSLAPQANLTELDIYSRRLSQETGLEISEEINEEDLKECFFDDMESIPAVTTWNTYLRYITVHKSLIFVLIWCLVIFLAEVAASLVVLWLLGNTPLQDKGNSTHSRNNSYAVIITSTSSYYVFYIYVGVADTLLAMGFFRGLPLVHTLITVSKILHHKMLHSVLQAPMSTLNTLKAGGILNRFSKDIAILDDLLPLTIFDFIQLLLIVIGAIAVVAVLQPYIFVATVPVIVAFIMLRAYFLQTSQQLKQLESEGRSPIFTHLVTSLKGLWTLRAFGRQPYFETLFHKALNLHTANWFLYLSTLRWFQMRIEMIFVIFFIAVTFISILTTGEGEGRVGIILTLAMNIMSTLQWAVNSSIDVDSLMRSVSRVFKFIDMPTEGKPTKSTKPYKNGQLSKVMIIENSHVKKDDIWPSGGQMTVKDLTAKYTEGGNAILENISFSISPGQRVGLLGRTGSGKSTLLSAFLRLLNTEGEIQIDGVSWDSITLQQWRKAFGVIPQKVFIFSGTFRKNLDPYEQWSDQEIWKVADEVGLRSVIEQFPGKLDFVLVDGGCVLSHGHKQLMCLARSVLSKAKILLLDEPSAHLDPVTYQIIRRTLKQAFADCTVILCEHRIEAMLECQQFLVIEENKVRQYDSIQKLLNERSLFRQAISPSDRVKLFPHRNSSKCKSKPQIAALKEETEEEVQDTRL

As to `CN1C(=O)C[C@@H](C(=O)NCCc2ccc3c(c2)OCO3)NC(=O)c2c(ccc3ccccc23)OC[C@@H](Cc2ccccc2)NC(=O)CN(CC[C@H]2CCCCO2)C(=O)[C@@H]1CC1CCCC1` (racemic) [Example 288, (3RS,7S,13R)-N-(2-(benzo[d][1,3]dioxol-5-yl)ethyl)-13-benzyl-7-(cyclopentylmethyl)-6-methyl-1,5,8,11-tetraoxo-9-(2-((SR)-tetrahydro-2H-pyran-2-yl)ethyl)-1,2,3,4,5,6,7,8,9,10,11,12,13,14-tetradecahydronaphtho[1,2-p][1]oxa[4,7,10,14]tetraazacycloheptadecine-3-carboxamide], the EC50 is 147 nM. The Emax (U2OS) turned out to be 175%.

Regarding `CN1C(=O)C[C@@H](C(=O)NCCc2ccc3c(c2)OCO3)NC(=O)c2c(ccc3ccccc23)OC[C@@H](Cc2ccccc2)NC(=O)CN(CC[C@H]2CCCCO2)C(=O)[C@@H]1CC1CCCCC1` (racemic) [Example 289, (3RS,7S,13R)-N-(2-(benzo[d][1,3]dioxol-5-yl)ethyl)-13-benzyl-7-(cyclohexylmethyl)-6-methyl-1,5,8,11-tetraoxo-9-(2-((SR)-tetrahydro-2H-pyran-2-yl)ethyl)-1,2,3,4,5,6,7,8,9,10,11,12,13,14-tetradecahydronaphtho[1,2-p][1]oxa[4,7,10,14]tetraazacycloheptadecine-3-carboxamide], the 50% effective concentration (EC50) was 186 nM. Further, the Emax (U2OS) is 160%. Consider `CN1C(=O)C[C@@H](C(=O)NCCc2ccc3c(c2)OCO3)NC(=O)c2c(ccc3ccccc23)OC[C@@H](Cc2ccccc2)NC(=O)CN(CCC2CCCCC2)C(=O)[C@@H]1CC1CCCC1` (racemic) [Example 290, (3RS,7S,13R)-N-(2-(benzo[d][1,3]dioxol-5-yl)ethyl)-13-benzyl-9-(2-cyclohexylethyl)-7-(cyclopentylmethyl)-6-methyl-1,5,8,11-tetraoxo-1,2,3,4,5,6,7,8,9,10,11,12,13,14-tetradecahydronaphtho[1,2-p][1]oxa[4,7,10,14]tetraazacycloheptadecine-3-carboxamide], for which, where the note is “U2OS”, the Emax amounted to 260%.

Consider `CN1C(=O)C[C@@H](C(=O)NCCc2ccc3c(c2)OCO3)NC(=O)c2c(ccc3ccccc23)OC[C@@H](Cc2ccccc2)NC(=O)CN(CCC2CCCCC2)C(=O)[C@@H]1CC1CCCCC1` (racemic) [Example 291, (3RS,7S,13R)-N-(2-(benzo[d][1,3]dioxol-5-yl)ethyl)-13-benzyl-9-(2-cyclohexylethyl)-7-(cyclohexylmethyl)-6-methyl-1,5,8,11-tetraoxo-1,2,3,4,5,6,7,8,9,10,11,12,13,14-tetradecahydronaphtho[1,2-p][1]oxa[4,7,10,14]tetraazacycloheptadecine-3-carboxamide], for which the EC50 was 109 nM. For the same compound, the Emax (U2OS) is 210%.

Turning to `CN1C(=O)C[C@@H](C(=O)NCCc2ccc3c(c2)OCO3)NC(=O)c2c(ccc3ccccc23)OC[C@@H](Cc2ccccc2)NC(=O)CN(CCC2CCCCC2)C(=O)[C@@H]1CC1CCC1` (racemic) [Example 292, (3RS,7S,13R)-N-(2-(benzo[d][1,3]dioxol-5-yl)ethyl)-13-benzyl-7-(cyclobutylmethyl)-9-(2-cyclohexylethyl)-6-methyl-1,5,8,11-tetraoxo-1,2,3,4,5,6,7,8,9,10,11,12,13,14-tetradecahydronaphtho[1,2-p][1]oxa[4,7,10,14]tetraazacycloheptadecine-3-carboxamide], under “U2OS”, the Emax is 191%. As for `COc1cccc(CCNC(=O)[C@@H]2CC(=O)N(C)[C@@H](CC3CCCC3)C(=O)N(C[C@@H]3CCCCO3)CC(=O)N[C@H](Cc3ccccc3)COc3ccc4ccccc4c3C(=O)N2)c1` (racemic) [Example 293, (3RS,7S,13R)-13-benzyl-7-(cyclopentylmethyl)-N-(3-methoxyphenethyl)-6-methyl-1,5,8,11-tetraoxo-9-(((S)-tetrahydro-2H-pyran-2-yl)methyl)-1,2,3,4,5,6,7,8,9,10,11,12,13,14-tetradecahydronaphtho[1,2-p][1]oxa[4,7,10,14]tetraazacycloheptadecine-3-carboxamide], the maximum response (Emax) was determined as 137%. For the compound `COc1cccc(CCNC(=O)[C@@H]2CC(=O)N(C)[C@@H](CC3CCCCC3)C(=O)N(C[C@@H]3CCCCO3)CC(=O)N[C@H](Cc3ccccc3)COc3ccc4ccccc4c3C(=O)N2)c1` (racemic) [Example 294, (3RS,7S,13R)-13-benzyl-7-(cyclohexylmethyl)-N-(3-methoxyphenethyl)-6-methyl-1,5,8,11-tetraoxo-9-(((S)-tetrahydro-2H-pyran-2-yl)methyl)-1,2,3,4,5,6,7,8,9,10,11,12,13,14-tetradecahydronaphtho[1,2-p][1]oxa[4,7,10,14]tetraazacycloheptadecine-3-carboxamide], the concentration giving a half-maximal response (EC50) came to 265 nM. The Emax (U2OS) was 138%.

For the compound `COc1cccc(CCNC(=O)[C@@H]2CC(=O)N(C)[C@@H](CC3CCCC3)C(=O)N(C[C@@H]3CCCCO3)CC(=O)N[C@H](Cc3ccccc3)COc3ccc4ccccc4c3C(=O)N2)c1` (racemic) [Example 295, (3RS,7S,13R)-13-benzyl-7-(cyclopentylmethyl)-N-(3-methoxyphenethyl)-6-methyl-1,5,8,11-tetraoxo-9-(((R)-tetrahydro-2H-pyran-2-yl)methyl)-1,2,3,4,5,6,7,8,9,10,11,12,13,14-tetradecahydronaphtho[1,2-p][1]oxa[4,7,10,14]tetraazacycloheptadecine-3-carboxamide], the Emax is on record as 174%. Regarding `COc1cccc(CCNC(=O)[C@@H]2CC(=O)N(C)[C@@H](CC3CCCCC3)C(=O)N(C[C@H]3CCCCO3)CC(=O)N[C@H](Cc3ccccc3)COc3ccc4ccccc4c3C(=O)N2)c1` (racemic) [Example 296, (3RS,7S,13R)-13-benzyl-7-(cyclohexylmethyl)-N-(3-methoxyphenethyl)-6-methyl-1,5,8,11-tetraoxo-9-(((R)-tetrahydro-2H-pyran-2-yl)methyl)-1,2,3,4,5,6,7,8,9,10,11,12,13,14-tetradecahydronaphtho[1,2-p][1]oxa[4,7,10,14]tetraazacycloheptadecine-3-carboxamide], the Emax (U2OS) came to 144%. Regarding `COc1cccc(CCNC(=O)[C@@H]2CC(=O)N(C)[C@@H](CC(C)C)C(=O)N(CC[C@H]3CCCCO3)CC(=O)N[C@H](Cc3ccccc3)COc3ccc4ccccc4c3C(=O)N2)c1` (racemic) [Example 297, (3RS,7S,13R)-13-benzyl-7-isobutyl-N-(3-methoxyphenethyl)-6-methyl-1,5,8,11-tetraoxo-9-(2-((SR)-tetrahydro-2H-pyran-2-yl)ethyl)-1,2,3,4,5,6,7,8,9,10,11,12,13,14-tetradecahydronaphtho[1,2-p][1]oxa[4,7,10,14]tetraazacycloheptadecine-3-carboxamide], the EC50 turned out to be 193 nM. For the same compound, where the note is “U2OS”, the Emax amounted to 225%.

As for `COc1cccc(CCNC(=O)[C@@H]2CC(=O)N(C)[C@@H](CC3CCCC3)C(=O)N(CC[C@H]3CCCCO3)CC(=O)N[C@H](Cc3ccccc3)COc3ccc4ccccc4c3C(=O)N2)c1` (racemic) [Example 298, (3RS,7S,13R)-13-benzyl-7-(cyclopentylmethyl)-N-(3-methoxyphenethyl)-6-methyl-1,5,8,11-tetraoxo-9-(2-((SR)-tetrahydro-2H-pyran-2-yl)ethyl)-1,2,3,4,5,6,7,8,9,10,11,12,13,14-tetradecahydronaphtho[1,2-p][1]oxa[4,7,10,14]tetraazacycloheptadecine-3-carboxamide], the EC50 turned out to be 220 nM. In addition, the Emax (U2OS) came out at 186%.

One may read the EC50 as the midpoint of the concentration-response curve. In general, Emax refers to the greatest response seen or fitted, relative to the assay's reference.
